Patent US11352350B2, “IRAK degraders and uses thereof” (Kymera Therapeutics, Inc., priority 2018, dated 2022)

Legend:
IRAK4 [1] = target: T1, IRAK4 (Homo sapiens (Human), UniProt Q9NWZ3); assay: IRAK4 MSD degradation in OCI-LY10; assay type: cell-based; conditions: OCI-LY10, 4 hrs
Outline: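 Remaining IRAK4 quantified by electrochemiluminescent MSD sandwich assay with two anti-IRAK4 antibodies. Compounds were dosed as 8 concentrations in 1:3 steps from a 1 to 10 μM final top on OCI-LY10 cells, incubated 4 to 24 h at 37° C. under 5% CO2. DC50 fitted with a three-parameter logistic curve.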

IRAK4 [2] = target: T1, IRAK4; assay: hPBMC IRAK4 degradation flow assay; assay type: cell-based; conditions: hPBMC monocyte
Outline: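 Thawed human PBMCs treated with 10-point, 5-fold compound dilutions (0.1% DMSO) at 37° C. for 20 hours or 4 hours. IRAK4 measured by flow MFI in CD14+ monocytes and CD14− lymphocytes, normalized to DMSO and 10 μM 20-hour control; DC50 and max degradation from 4-parameter logistic fit.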

OCI-LY10 = assay: CTG Cell Viability Assay - OCI-LY10; assay type: cell-based, human; conditions: Homo sapiens, OCI-Ly10, 96 h, OCI-LY10, 4 days; read-out: CTG Cell Viability Assay - OCI-LY10: Average external-IC50
Outline: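 Viability read by CellTiter-Glo luminescence after 4 days at 37° C under 5% CO2 with compound (top 10 μM final, 1:3 steps, 9 doses, DMSO 0.2%). Three-parameter logistic fit gave IC50.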

IL-6 = IL-6 secretion in hPBMC using R848 stimulation; assay type: cell-based, human; conditions: hPBMC, R848 as stim, t = 20 h
[3] = read-out: IRAK4 MSD degradation in OCI-LY10 at 4 hrs: DC50
[4] = 20 hrs, read-out: IRAK4 degradation in hPBMC monocyte: DC50
[5] = MSD, read-out: IRAK4 MSD degradation in OCI-LY10 at 4 hrs: Average external-Abs DC50
[6] = 20 hr, flow assay, read-out: IRAK4 degradation in hPBMC monocyte at 20 hr: Average external Abs DC50

T1 sequence (Q9NWZ3 whole entry): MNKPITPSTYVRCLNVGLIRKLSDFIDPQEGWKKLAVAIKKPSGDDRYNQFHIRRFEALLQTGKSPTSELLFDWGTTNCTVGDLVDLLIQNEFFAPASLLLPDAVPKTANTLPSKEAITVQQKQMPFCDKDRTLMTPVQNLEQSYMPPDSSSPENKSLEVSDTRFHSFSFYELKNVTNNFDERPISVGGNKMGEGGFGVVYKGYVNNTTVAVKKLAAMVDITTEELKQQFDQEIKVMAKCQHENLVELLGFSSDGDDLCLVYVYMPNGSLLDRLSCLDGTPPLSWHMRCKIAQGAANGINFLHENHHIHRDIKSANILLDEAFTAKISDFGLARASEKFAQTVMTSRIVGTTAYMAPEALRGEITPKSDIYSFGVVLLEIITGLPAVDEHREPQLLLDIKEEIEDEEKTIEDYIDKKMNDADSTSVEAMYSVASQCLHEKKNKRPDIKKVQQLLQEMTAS

Row | Structure (SMILES) | DC50 (IRAK4 [1]; [3]) [nM] | DC50 (IRAK4 [2]; [4]) [nM] | IC50 (OCI-LY10) [nM] | IC50 (IL-6) [nM] | IC50 (IL-6; Homo sapiens, 20 h) [nM] | DC50 (IRAK4 [1]; [5]) [nM] | DC50 (IRAK4 [2]; [6]) [nM]
1 | Cn1c(=O)n(C2CCC(=O)NC2=O)c2cccc(CCCN3CCOC4(CCN(C[C@H]5CC[C@H](n6cc(NC(=O)c7cnn8ccc(N9C[C@H]%10C[C@@H]9CO%10)nc78)c(C(F)F)n6)CC5)CC4)C3)c21 (stereo partly drawn) [I-450] | 10 to 100 | < 10 | > 1000 | 1 to 10 |  |  | 
2 | Cc1ccc(-c2nn([C@H]3CC[C@H](CN4CCC5(CC4)CN(CCCc4cccc6c4n(C)c(=O)n6C4CCC(=O)NC4=O)C5)CC3)cc2NC(=O)c2cnn3cccnc23)nc1 (stereo partly drawn) [I-509] | 10 to 100 | 10 to 100 | > 1000 |  | 1 to 10 |  | 
3 | CN(C[C@@H]1CN(Cc2cccc3c2n(C)c(=O)n3C2CCC(=O)NC2=O)CCO1)C[C@H]1CC[C@H](n2cc(NC(=O)c3cnn4ccc(N5C[C@H]6C[C@@H]5CO6)nc34)c(C(F)F)n2)CC1 (stereo partly drawn) [I-411] |  |  | > 1000 |  | < 1 | > 1000 | 10 to 100
4 | C[C@@H]1CN(c2ccn3ncc(C(=O)Nc4cn([C@H]5CC[C@H](C(=O)N6CCC7(CC6)CN(CCCc6cccc8c6n(C)c(=O)n8C6CCC(=O)NC6=O)C7)CC5)nc4C(F)F)c3n2)C[C@H](C)O1 (stereo partly drawn) [I-480] | 10 to 100 | < 10 | > 1000 |  | < 1 |  | 
5 | Cn1c(=O)n(C2CCC(=O)NC2=O)c2cccc(CCCOC3CCN(C[C@H]4CC[C@H](n5cc(NC(=O)c6cnn7cccnc67)c(N6CCOCC6)n5)CC4)CC3)c21 (stereo partly drawn) [I-481] | 100 to 1000 | 100 to 1000 | > 1000 |  | 10 to 100 |  | 
6 | Cn1c(=O)n(C2CCC(=O)NC2=O)c2cccc(CC[C@@H]3CN(C[C@H]4CC[C@H](C5N=C(NC(=O)c6cnn7ccc(N8CCCOCC8)nc67)C(C(F)F)=N5)CC4)CCO3)c21 (stereo partly drawn) [I-514] | < 10 | < 10 | > 1000 |  | < 1 |  | 
7 | Cn1c(=O)n(C2CCC(=O)NC2=O)c2cccc(CCCN3CCC4(CC3)CN(C(=O)[C@H]3CC[C@H](n5cc(NC(=O)c6cnn7ccc(N8C[C@H]9C[C@@H]8CO9)nc67)c(C(F)F)n5)CC3)C4)c21 (stereo partly drawn) [I-422] |  |  | > 1000 |  | < 1 | 10 to 100 | < 10
8 | Cn1c(=O)n(C2CCC(=O)NC2=O)c2cccc(CCCN3CCOC4(CCN(C(=O)c5ccc(-n6cc(NC(=O)c7cnn8ccc(N9C[C@H]%10C[C@@H]9CO%10)nc78)c(C(F)F)n6)cc5)CC4)C3)c21 (stereo partly drawn) [I-424] |  |  | > 1000 |  | 1 to 10 | < 10 | < 10
9 | Cn1c(=O)n(C2CCC(=O)NC2=O)c2cccc(C#CCCCOCc3ccc(-n4cc(NC(=O)c5cnn6ccc(N7C[C@H]8C[C@@H]7CO8)nc56)c(C(F)F)n4)cc3)c21 (stereo partly drawn) [I-498, N-[3-(difluoromethyl)-1-[4-[5-[1-(2,6-dioxo-3-piperidyl)-3-methyl-2-oxo-benzimidazol-4-yl]pent-4-ynoxymethyl]phenyl]pyrazol-4-yl]-5-[(1R,4R)-2-oxa-5-azabicyclo [2.2.1]heptan-5-yl] pyrazolo[1,5-a]pyrimidine-3-carboxamide] | 100 to 1000 | 100 to 1000 | > 1000 |  | 10 to 100 |  | 
10 | Cn1c(=O)n(C2CCC(=O)NC2=O)c2cccc(CCCC3CCN(C[C@H]4CC[C@H](n5cc(NC(=O)c6cnn7ccc(N8CCOC(C)(C)C8)nc67)c(C(F)F)n5)CC4)CC3)c21 (stereo partly drawn) [I-525] | 10 to 100 | < 10 | > 1000 |  | < 1 |  | 
11 | Cn1c(=O)n(C2CCC(=O)NC2=O)c2cccc(CCCOC3CCN(C[C@H]4CC[C@H](n5cc(NC(=O)c6cnn7ccc(N8CCCOCC8)nc67)c(C(F)F)n5)CC4)CC3)c21 (stereo partly drawn) [I-515] | < 10 | < 10 | > 1000 |  | < 1 |  | 
12 | Cc1ccc(-c2nn([C@H]3CC[C@H](C(=O)N4CCC5(CC4)CN(CCCc4cccc6c4n(C)c(=O)n6C4CCC(=O)NC4=O)C5)CC3)cc2NC(=O)c2cnn3cccnc23)nc1 (stereo partly drawn) [I-499] | < 10 | < 10 | > 1000 |  | 1 to 10 |  | 
